In patent publication US20250320184A1 (SIRONAX LTD., priority 2022, published 2025):

Columns and labels:
SARM1 (50-724) [1] = target: T1, SARM1 (50-724) (Homo sapiens, UniProt Q6SZW1); assay: SARM1 (50-724) enzymatic assay; settings: SARM1 inhibitory activity; purified SARM1 (50-724) 2 nM, 200 μM NMN activator, 100 μM NAD+ substrate, LC-MS/MS
T1 sequence (Q6SZW1 50-724): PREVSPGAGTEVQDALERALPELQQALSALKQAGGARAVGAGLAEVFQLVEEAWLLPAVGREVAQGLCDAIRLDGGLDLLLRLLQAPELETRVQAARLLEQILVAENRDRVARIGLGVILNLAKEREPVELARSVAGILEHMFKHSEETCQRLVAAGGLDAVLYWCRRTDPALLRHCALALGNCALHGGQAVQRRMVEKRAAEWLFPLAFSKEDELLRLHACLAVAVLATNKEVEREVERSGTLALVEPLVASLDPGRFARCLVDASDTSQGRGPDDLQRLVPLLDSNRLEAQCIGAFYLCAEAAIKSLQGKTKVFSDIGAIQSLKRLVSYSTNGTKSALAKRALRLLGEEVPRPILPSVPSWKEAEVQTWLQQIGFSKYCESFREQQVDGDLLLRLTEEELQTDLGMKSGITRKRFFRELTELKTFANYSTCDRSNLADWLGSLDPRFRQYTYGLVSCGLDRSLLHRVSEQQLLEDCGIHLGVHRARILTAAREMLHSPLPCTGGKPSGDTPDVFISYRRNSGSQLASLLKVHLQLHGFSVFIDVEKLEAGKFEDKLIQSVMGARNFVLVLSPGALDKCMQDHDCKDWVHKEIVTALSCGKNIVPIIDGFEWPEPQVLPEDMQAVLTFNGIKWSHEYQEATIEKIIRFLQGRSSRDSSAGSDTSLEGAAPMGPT
Procedure: (§1) An enzymatic assay was performed in a 384-well plate using Dulbecco's phosphate-buffered saline (PBS) as the reaction buffer. […] The reaction was initiated by adding a mixture of 200 μM nicotinamide mononucleotide (NMN) as activator and 100 μM NAD^+ as substrate. After 1 h of incubation at room temperature, the reaction was terminated with 10 times volume of 70% acetonitrile, then centrifuged at 3800 rpm for 10 min.

SARM1 (50-724) [2] = target: T1, SARM1 (50-724); assay: biochemical
Procedure: as §1

Row | SMILES | IC50 (SARM1 (50-724) [1]) | IC50 (SARM1 (50-724) [2])
1 | CC(Nc1ccc2cc[nH]c(=O)c2c1)c1nccc(Cl)c1Cl (racemic) [Example 194, 7-((1-(3,4-dichloropyridin-2-yl)ethyl)amino)isoquinolin-1(2H)-one] | < 100 nM | –
2 | CC(Nc1ccc2c(c1)C(=O)NCC2)c1cccc(Cl)c1Cl (single isomer, unassigned) [Example 112] | < 100 nM | –
3 | Cc1cc(F)cc(S(=O)(=O)Nc2ccc3c(c2)C(=O)NCC3)c1 [Example 15A, 3-fluoro-5-methyl-N-(1-oxo-1,2,3,4-tetrahydroisoquinolin-7-yl)benzenesulfonamide] | – | > 1000 nM
4 | O=C1NCCc2ccc(NC(c3ccccc3)c3ccccc3)cc21 [Example 124, 7-(benzhydrylamino)-3,4-dihydroisoquinolin-1(2H)-one] | – | > 1000 nM
5 | Cc1c(F)cccc1[S+]([O-])Nc1ccc2c(c1)C(=O)NCC2 (stereo not shown) [Example 158] | – | > 1000 nM
6 | Cc1c(F)cccc1S(=O)(=O)Nc1cccc(-c2cscn2)c1 [Example 159, 3-fluoro-2-methyl-N-(3-(thiazol-4-yl)phenyl)benzenesulfonamide] | – | 500 to 1000 nM
7 | Cc1c(F)cccc1S(=O)(=O)Nc1cccc(-c2ccccn2)c1 [Example 160, 3-fluoro-2-methyl-N-(3-(pyridin-2-yl)phenyl)benzenesulfonamide] | – | 500 to 1000 nM
8 | Cc1c(F)cccc1S(=O)(=O)Nc1cccc(-c2cnn(C)c2)c1 [Example 161, 3-fluoro-2-methyl-N-(3-(1-methyl-1H-pyrazol-4-yl)phenyl)benzenesulfonamide] | – | > 1000 nM
9 | Cc1c(F)cccc1S(=O)(=O)Nc1cccc(-c2ccc[nH]c2=O)c1 [Example 162, 3-fluoro-2-methyl-N-[3-(2-oxo-1,2-dihydropyridin-3-yl)phenyl]benzenesulfonamide] | – | > 1000 nM
10 | Cc1cc(F)cc(C(CO)Nc2ccc3c(c2)C(=O)NCC3)c1 (stereo not shown) [Example 163, 7-((1-(3-fluoro-5-methylphenyl)-2-hydroxyethyl)amino)-3,4-dihydroisoquinolin-1(2H)-one] | – | > 1000 nM
11 | CC1CCN(S(=O)(=O)Nc2ccc3c(c2)C(=O)NCC3)CC1 [Example 164, 4-methyl-N-(1-oxo-1,2,3,4-tetrahydroisoquinolin-7-yl)piperidine-1-sulfonamide] | – | > 1000 nM
12 | CC1CN(S(=O)(=O)Nc2ccc3c(c2)C(=O)NCC3)CC(C)O1 (stereo not shown) [Example 165, 2,6-dimethyl-N-(1-oxo-1,2,3,4-tetrahydroisoquinolin-7-yl)morpholine-4-sulfonamide] | – | > 1000 nM
13 | O=C1NCCc2ccc(NS(=O)(=O)N3C4CCCC3CC4)cc21 [Example 166, N-(1-oxo-1,2,3,4-tetrahydroisoquinolin-7-yl)-8-azabicyclo[3.2.1]octane-8-sulfonamide] | – | > 1000 nM
14 | CC1(C)CCCCN1S(=O)(=O)Nc1ccc2c(c1)C(=O)NCC2 [Example 168, 2,2-dimethyl-N-(1-oxo-1,2,3,4-tetrahydroisoquinolin-7-yl)piperidine-1-sulfonamide] | – | > 1000 nM
15 | Cc1cc(F)cc(C(C#N)Nc2ccc3c(c2)C(=O)NCC3)c1 (stereo not shown) [Example 173, 2-(3-fluoro-5-methylphenyl)-2-((1-oxo-1,2,3,4-tetrahydroisoquinolin-7-yl)amino)acetonitrile] | – | > 1000 nM
16 | Cc1cc(F)cc(C(Nc2ccc3c(c2)C(=O)NCC3)C(F)(F)F)c1 (stereo not shown) [Example 174, 7-((2,2,2-trifluoro-1-(3-fluoro-5-methylphenyl)ethyl)amino)-3,4-dihydroisoquinolin-1(2H)-one] | – | 100 to 500 nM
17 | Cc1cc(F)cc(C2(Nc3ccc4c(c3)C(=O)N(C)CC4)COC2)c1 [Example 175, 7-((3-(3-fluoro-5-methylphenyl)oxetan-3-yl)amino)-2-methyl-3,4-dihydroisoquinolin-1(2H)-one] | – | > 1000 nM
18 | Cc1cc(F)cc(C(CO)Oc2ccc3c(c2)C(=O)NCC3)c1 (stereo not shown) [Example 176, 7-(1-(3-fluoro-5-methylphenyl)-2-hydroxyethoxy)-3,4-dihydroisoquinolin-1(2H)-one] | – | > 1000 nM
19 | Cc1cc(F)cc(C(Nc2ccc3c(c2)C(=O)NCC3)c2ccncc2)c1 (stereo not shown) [Example 177, 7-(((3-fluoro-5-methylphenyl)(pyridin-4-yl)methyl)amino)-3,4-dihydroisoquinolin-1(2H)-one] | – | > 1000 nM
20 | Clc1cccc(C(Nc2ccc3cccnc3c2)C2CCC2)c1Cl (stereo not shown) [Example 179, N-(cyclobutyl(2,3-dichlorophenyl)methyl)quinolin-7-amine] | – | 100 to 500 nM
21 | Clc1cccc(C(Nc2ccc3cccnc3c2)C2CC2)c1Cl (stereo not shown) [Example 180, N-(cyclopropyl(2,3-dichlorophenyl)methyl)quinolin-7-amine] | – | 100 to 500 nM
22 | CC(Nc1ccc2c(c1)NC(=O)OC2)c1cccc(Cl)c1Cl (stereo not shown) [Example 181, 7-((1-(2,3-dichlorophenyl)ethyl)amino)-1,4-dihydro-2H-benzo[d][1,3]oxazin-2-one] | – | 100 to 500 nM
23 | CC(Nc1ccc2cn[nH]c(=O)c2c1)c1c(Cl)ccc(F)c1Cl (stereo not shown) [Example 199] | – | < 100 nM
24 | O=c1[nH]ccc2ccc(OC(CO)c3cccc(Cl)c3Cl)cc12 (stereo not shown) [Example 228, 7-(1-(2,3-dichlorophenyl)-2-hydroxyethoxy)isoquinolin-1(2H)-one] | – | 100 to 500 nM
25 | CC1(C)C(=O)N(CC(=O)N2CCCCC2)c2cc(NS(=O)(=O)c3cccc(Cl)c3Cl)ccc21 [Example 286, 2,3-dichloro-N-(3,3-dimethyl-2-oxo-1-(2-oxo-2-(piperidin-1-yl)ethyl)indolin-6-yl)benzenesulfonamide] | – | < 100 nM
26 | CC1(C)C(=O)N(CC(=O)NCCO)c2cc(NS(=O)(=O)c3cccc(Cl)c3Cl)ccc21 [Example 287, 2-(6-((2,3-dichlorophenyl)sulfonamido)-3,3-dimethyl-2-oxoindolin-1-yl)-N-(2-hydroxyethyl)acetamide] | – | < 100 nM
27 | CC1(C)C(=O)N(CC(=O)N2CCOCC2)c2cc(NS(=O)(=O)c3cccc(Cl)c3Cl)ccc21 [Example 291, 2,3-dichloro-N-(3,3-dimethyl-1-(2-morpholino-2-oxoethyl)-2-oxoindolin-6-yl)benzenesulfonamide] | – | < 100 nM
28 | Cc1c2ccc(NC(C)(C)c3nc(Cl)c(Cl)s3)cc2nn1CC(N)=O [Example 360, 2-(6-((2-(4,5-dichlorothiazol-2-yl)propan-2-yl)amino)-3-methyl-2H-indazol-2-yl)acetamide] | – | < 100 nM
